In publication PMC7557804, “The Anti-Microbial Peptide (Lin-SB056-1)2-K Reduces Pro-Inflammatory Cytokine Release through Interaction with Pseudomonas aeruginosa Lipopolysaccharide” (Antibiotics, 2020):

Columns and labels:
A549 cells = assay: LPS-induced cytokine production by A549 cells (bead-based multiplex immunoassay); format: cell-based, Human; conditions: 4 h, 37 °C
Method: (§1) Human non-small-cell lung adenocarcinoma A549 cells (ATCC CCL-185; LGC Standards, Milan, Italy) and human monocytic THP-1 cells (ATCC TIB-202; LGC Standards) were cultured in tissue culture flasks in Dulbecco’s modified essential medium (DMEM) (Euroclone, Milan, Italy) and RPMI 1640 medium (Euroclone), respectively. Both media were supplemented with 2 mM L-glutamine (Euroclone) and 10% heat-inactivated fetal bovine serum (FBS; Euroclone). Confluent monolayers were detached from the culture flask with 0.25% trypsin/1 mM EDTA solution (Euroclone), suspended in complete culture medium and seeded into flat-bottom 96-well plates at a final density of 1 × 10^4 cells/well (A549) and 2 × 10^4 cells/well (THP-1). A549 cells were cultured for 24 h at 37 °C, 5% CO2 in order to allow adhesion and formation of semi-confluent monolayers. THP-1 cells were cultured for 3 days (37 °C, 5% CO2) in the presence of 100 nM TPA (Sigma-Aldrich, St. Louis, MO, USA) to induce their differentiation into macrophage-like cells.
(§2) The anti-inflammatory potential of lin-SB056-1 and (lin-SB056-1)2-K was assessed by evaluating their ability to reduce LPS-induced production of pro-inflammatory cytokines by A549 cells and THP-1 macrophages. In order to ensure cytokine production, cell monolayers were stimulated with LPS from P. aeruginosa serotype 10 (purified by phenol extraction; Sigma-Aldrich, Milano, Italy) at a final concentration of 10 ng/mL (THP-1) and 800 ng/mL (A549). LPS concentrations used in the experiments were chosen based on preliminary assays aimed at identifying the minimum dose of the molecule able to stimulate cytokine production after 4 h of exposure. In order to assess the inhibitory activity of peptides on cytokine production, cell monolayers were incubated in complete culture medium in the presence of LPS and different concentrations of lin-SB056-1 and (lin-SB056-1)2-K (4.8 to 19.25 μM) for 4 h (37 °C, 5% CO2). Cells incubated in the presence of LPS alone were used as positive (cytokine production) control. Following incubation, cell culture supernatants were collected, filter sterilized (0.22 µm) and employed for the quantification of cytokines and the assessment of cell viability.
Different pro-inflammatory cytokines (i.e., IL-1β, IL-6, IL-8 and TNF-α) were quantified in cell culture supernatants through a bead-based multiplex immunoassay (LEGENDplex multi-analyte flow assay kit; BioLegend, San Diego, CA, USA) following manufacturer’s instructions. Briefly, 25 μL of cytokine standard or cell supernatant were incubated with 25 μL of anti-cytokine conjugated beads into V-bottom 96-well plates for 2 h. Following incubation, the plates were washed and subsequently incubated with the detection antibody (25 μL/well) for 1 h. A volume of 25 μL of streptavidin-phycoerythrin was added to each well, and the plates were incubated for another 30 min in the dark. Following consecutive washing steps, the beads were resuspended in the LEGENDplex wash buffer and the samples were analyzed by flow cytometry (BD Accuri C6 flow cytometer; BD Biosciences, Mountain View, CA, United States). Data were acquired with the BD Accuri C6 software (BD Biosciences) (300 events per analyte) and analyzed with the LEGENDplex software (BioLegend). Minimum detectable concentration (MDC+2STDEV) for the tested cytokines were as follows: IL-1β, 0.65 + 0.47 pg/mL; IL-6, 0.97 + 1.46 pg/mL; IL-8, 1.90 + 0.65 pg/mL; TNF-α, 0.88 + 0.27 pg/mL.

THP-1 macrophages = assay: LPS-induced cytokine production by THP-1 macrophages; format: cell-based, Human; conditions: P. aeruginosa LPS 10 ng/mL, 4 h, 37 °C, 5% CO2
Method: as §1
The anti-inflammatory potential of lin-SB056-1 and (lin-SB056-1)2-K was assessed by evaluating their ability to reduce LPS-induced production of pro-inflammatory cytokines by A549 cells and THP-1 macrophages. […] Following incubation, cell culture supernatants were collected, filter sterilized (0.22 µm) and employed for the quantification of cytokines and the assessment of cell viability.
(§3) Different pro-inflammatory cytokines (i.e., IL-1β, IL-6, IL-8 and TNF-α) were quantified in cell culture supernatants through a bead-based multiplex immunoassay (LEGENDplex multi-analyte flow assay kit; BioLegend, San Diego, CA, USA) following manufacturer’s instructions. […] Following consecutive washing steps, the beads were resuspended in the LEGENDplex wash buffer and the samples were analyzed by flow cytometry (BD Accuri C6 flow cytometer; BD Biosciences, Mountain View, CA, United States). Data were acquired with the BD Accuri C6 software (BD Biosciences) (300 events per analyte) and analyzed with the LEGENDplex software (BioLegend). […]

[1] = BODIPY TR cadaverine (BC) fluorescent displacement assay, LPS binding; design: species or system P. aeruginosa; conditions: 50 mM Tris-HCl, pH 7.4, 25 °C
Method: Measurement of the ability of lin-SB056-1 and its dendrimeric derivative to bind P. aeruginosa serotype 10 LPS (Sigma-Aldrich) in vitro was performed by a fluorescent displacement assay using the BODIPY TR cadaverine (BC) probe (5-(((4-(4,4-difluoro-5-(2-thienyl)-4-bora-3a,4a-diaza-s-indacene-3-yl)phenoxy)acetyl)amino)pentylamine, hydrochloride); Thermo Fisher Scientific), as described elsewhere. BC binds to LPS by recognizing the lipid A portion and the probe fluorescence is quenched. When a peptide able to interact with LPS is added, BC is displaced from the complex and its fluorescence increases. LPS binding assays were carried out in 50 mM Tris-HCl buffer, pH 7.4. Aliquots of the peptides at a final concentration of 0.1 μM were successively added to a cuvette containing the LPS/BC complex (10 µg/mL P. aeruginosa LPS and 10 µM BC). Fluorescence measurements were performed with a Perkin-Elmer LS 55B spectrofluorometer (Perkin-Elmer, Waltham, MA, USA) using a thermostated (25 °C) cuvette apparatus (excitation: 580 nm; emission: 620 nm).

[2] = test system: lung epithelial- and macrophage-cell lines stimulated with P. aeruginosa LPS; assay: LPS-induced production of pro-inflammatory cytokines, overall result; format: cell-based, Human
Method: as §2, with “In order to assess the inhibitory activity of peptides on cytokine production, cell monolayers were incubated in complete culture medium in the presence of LPS and different concentrations of lin-SB056-1 and (lin-SB056-1)2-K (4.8 to 19.25 μM) for 4 h (37 °C, 5% CO2). Cells incubated in the presence of LPS alone were used as positive (cytokine production) control.” left out
as §3, with “States).” for “States). Data were acquired with the BD Accuri C6 software (BD Biosciences) (300 events per analyte) and analyzed with the LEGENDplex software (BioLegend).”

P. aeruginosa = conditions: 3-D lung epithelial cell model, cited from earlier work
Text: (§4) In our previous work, we explored different strategies to enhance the anti-bacterial and anti-biofilm activity of the semi-synthetic peptide lin-SB056-1 [12] in physiologically relevant, host-mimicking conditions that are known to interfere with the stability and efficacy of AMPs.

[3] = test system: reference strain and CF lung isolates of P. aeruginosa; conditions: cell culture medium; cited from earlier work
Text: as §4

[4] = 9.6 μM peptide, P. aeruginosa serotype 10 LPS 800 ng/mL, 5% CO2, complete culture medium, mean of at least three independent experiments, vs peptide-untreated control
[5] = 9.6 μM peptide, vs LPS-stimulated peptide-untreated control, statistically significant, mean of three independent experiments

Substance: [KWKIRVRLSA]2-K [(lin-SB056-1)2-K, dendrimeric derivative of lin-SB056-1]
- reduction of IL-6 levels (A549 cells; [4]): ≤ 80%
- reduction of IL-8 levels (A549 cells; [4]): ≤ 80%
- effect on IL-6 release (A549 cells; LPS 800 ng/mL, peptide 4.8 to 19.25 μM): significant reduction
- effect on IL-8 release (A549 cells; LPS 800 ng/mL, peptide 4.8 to 19.25 μM, lin-SB056-1 decrease at 19.25 μM (highest tested)): significant reduction
- reduction in secretion of IL-1β (THP-1 macrophages; [5]): 80%
- reduction in secretion of IL-6 (THP-1 macrophages; [5]): 60%
- effect on TNF-α levels (THP-1 macrophages; three independent experiments): a trend in decreasing TNF-α levels, no statistical significance was reached
- LPS-binding affinity compared to monomeric form ([1]; BC displacement): significantly greater affinity
- ED50 (Effective Displacement; peptide concentration displacing half of the BC) ([1]; P. aeruginosa serotype 10 LPS 10 µg/mL, BC 10 µM, excitation 580 nm, emission 620 nm, mean of three independent experiments, SD not exceeding 5%): approximately 0.4 µM
- anti-inflammatory effect compared to monomeric counterpart ([2]; LPS and/or P. aeruginosa stimulation): superior anti-inflammatory effect compared to its monomeric counterpart
- decrease in LPS-induced production of pro-inflammatory cytokines (IL-1β, IL-6 and IL-8) ([2]; lung epithelial- and macrophage-cell lines, P. aeruginosa LPS): up to 80%
- reduction in the number of biofilm-forming bacteria (P. aeruginosa; 19.25 µM): ≤ 99.9%
- anti-biofilm activity (P. aeruginosa; compared to lin-SB056-1 and lin-SB056-1/EDTA): stronger anti-biofilm activity compared to both lin-SB056-1 and the lin-SB056-1/EDTA combination
- MIC (Minimal Inhibitory Concentration) [3]: 2.4 to 9.6 µM
- fold lower MIC compared to lin-SB056-1 [3]: 4 to 16 fold
